In BindingDB's records for doi:10.1021/jm070014g (2007) one finds EC50 data, which are given here for 2 compounds.

Each structure is given as a SMILES string.

The target in this assay is T1, Protein Tat (Human immunodeficiency virus type 1 group M subtype B (isolate HXB2), UniProt P04608).
T1 sequence (P04608 whole entry): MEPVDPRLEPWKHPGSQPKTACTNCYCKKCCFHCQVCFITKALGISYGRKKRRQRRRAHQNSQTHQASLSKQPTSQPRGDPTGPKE
Put plainly: Inhibition of Tat-mediated transcription of viral promoter in 293 T cells transfected with HIV1 tat by luciferase reporter gene assay. In general terms: In a reporter assay the amount or activity of a reporter protein is the signal.

As to `CC(Cl)c1ccc(NCCCN)c([N+](=O)[O-])c1` (configuration not stated), a half-maximal effect (EC50) was put at 1 µM.
In the case of `Cc1ccc(NCCCN)c([N+](=O)[O-])c1`, the 50% effective concentration (EC50) – broadly, the midpoint of the concentration-response curve – was determined as 10 µM.
